Entries after “also recorded” stand apart in the source; their conditions may differ. Blank lines part the entries; values can stand above or below the substance they belong to.
What was measured:
[1] = target: human Galectin-3 (GAL3) (human) (UniProt P17931); assay: cell-based or functional assay
[2] = system: CD3+ T cells in PBMC from MM patients; assay: CFSE T cell proliferation in MM patient PBMC with or without MM lysate stimulation; assay type: cell-based, human; conditions: newly diagnosed (N=6) or relapsed (N=3) MM, presence or absence of MM lysate, vs anti-PD1, anti-OX40, anti-GITR, FIG. 1C
Protocol: (§1) Multiple myeloma (MM) cell lines U266, McCAR, HSB2, MMIS, RPMI8226, OPM2, H929, ANBL6, OCIMY5, AMO1 and KMS11 were obtained from ATCC (Manassas, VA). The T2 cell line, a human B and T cell hybrid expressing HLA-A2 molecules, was provided by Dr. J. Molldrem (University of Texas M. D. Anderson Cancer Center, Houston, TX). The cell lines were cultured in DMEM media supplemented with 10% fetal calf serum (FCS; BioWhittaker, Walkersville, MD), 100 IU/ml penicillin, and 100 μg/ml streptomycin (Gibco-Life Technologies, Rockville, MD). A mixture of ten MM cell lines was utilized to prepare tumor cell lysates by repeated (10×) cycles of freeze (−140° C.)/thaw (37° C.) or prepared as irradiated (20 Gy) whole tumor cells as sources of MM antigen stimulation.
BM aspirates and peripheral blood (PB) samples were obtained from patients with MGUS [BM: N=5, PB: N=5] and SMM [BM: N=5, PB: N=5] and patients with MM (Newly Diagnosed [BM: N=15, PB: N=10], Relapsed [BM: N=12, PB: N=12], Relapsed/Refractory [BM: N=15, PB: N=12]) after informed consent, in accordance with the Declaration of Helsinki, and with approval by the Institutional Review Board at Dana-Farber Cancer Institute (Boston, MA). […]
Proliferation of specific cell populations was evaluated using CFSE-based proliferation assays. […]

[3] = system: PD1+ or LAG3+ T cells in BMMC from MM patients; assay: Checkpoint (PD1, LAG3) expression on T cells in MM patient BMMC after modulator treatment, flow cytometry; assay type: cell-based, human; conditions: for upregulation / induction of other immune checkpoints: MM patient BMMC, among clinical grade checkpoint inhibitors and immune agonists evaluated (discussion)
Protocol: (§2) BMMC or PBMC from patients with MGUS, SMM, MM or healthy individuals were evaluated by flow cytometry analyses by staining cells with fluorochrome-conjugated mAb specific to each cell surface antigen for 30 minutes at room temperature, followed by LIVE/DEAD reagent staining to confirm viability. Regulatory T cells (Treg) were identified by cell surface staining (CD3, CD4, CD8, CD25), permeabilized using Foxp3/Transcription Factor Staining Buffer Set (eBioscience) and stained for intracellular FOXP3 expression. Myeloid-derived-suppressor cells (MDSC) were identified as G-type MDSC (CD11b+CD33+ HLA-DRlow/−CD14−CD15+) and M-type MDSC (CD11b+CD33+ HLA-DRlow/−CD14+CD15−). Cells were acquired using a BD Fortessa X-20 (BD Biosciences) flow cytometer, and the data was analyzed using DIVA™ v8.0 (BD) or FlowJo v10.0.7 (Tree star, Ashland, OR) software.
(§3) Proliferation of specific cell populations was evaluated using CFSE-based proliferation assays. In brief, MM patient BMMC, PBMC or XBP1/CD138/CS1-specific CTL were labeled with CFSE (Molecular Probes, Eugene, OR) and incubated with clinical grade checkpoint inhibitor (1 μg/ml) or immune agonist (1 μg/ml) in the presence of low dose (20 units) IL-2, with or without stimulation with irradiated MM cells (patients' cells, cell line) or MM lysates. After 4-7 days incubation, the cells were stained with LIVE/DEAD reagent and specific fluorochrome conjugated mAbs, washed, fixed in 2% paraformaldehyde, and acquired using a LSRII Fortessa™ flow cytometer.

[4] = system: T cells (CD3+, CD4+ Th, CD8+ Tc) in BMMC from MM patients; assay: CFSE proliferation of T cells in MM patient BMMC treated with checkpoint inhibitor, immune agonist or LAG3-ligand antibody; assay type: cell-based, human; conditions: for CD3+ T cell proliferation: BMMC, newly diagnosed, relapsed or relapsed/refractory MM (N=10), vs untreated control
From the text: BM aspirates and peripheral blood (PB) samples were obtained from patients with MGUS [BM: N=5, PB: N=5] and SMM [BM: N=5, PB: N=5] and patients with MM (Newly Diagnosed [BM: N=15, PB: N=10], Relapsed [BM: N=12, PB: N=12], Relapsed/Refractory [BM: N=15, PB: N=12]) after informed consent, in accordance with the Declaration of Helsinki, and with approval by the Institutional Review Board at Dana-Farber Cancer Institute (Boston, MA). In addition, healthy individuals BM [N=5] or leukapheresis [N=5] products were purchased from either AllCells (Alameda, CA) or the Blood Donor Center at Boston Children's Hospital (Boston, MA), respectively. Mononuclear cells were isolated from BM (BMMC) or PB (PBMC) by standard density gradient centrifugation using Ficoll-Paque™ Plus (Amersham Pharmacia Biotech AB, Uppsala Sweden) and used in these studies.
as §3

[5] = system: U266 MM cells; assay: CD107a degranulation and intracellular IFN-γ production of XBP1/CD138/CS1-specific CTL against MM; assay type: cell-based, human; conditions: CTL treated 1 μg/ml antibody 24 hours, then cultured with U266; FIG. 6C
Protocol: (§4) XBP1/CD138/CS1-specific CTL were generated ex vivo after four cycles of weekly stimulation of HLA-A2^+ CD3^+ T lymphocytes (N=5) with a cocktail of four peptides containing heteroclitic XBP1 US184-192 (YISPWILAV (SEQ ID NO: 24)), heteroclitic XBP1 SP367-375 (YLFPQLISV (SEQ ID NO: 25)), native CD138260-268 (GLVGLIFAV (SEQ ID NO: 26)) and native CS1239-247 (SLFVLGLFL (SEQ ID NO: 27)), as described previously.
The anti-tumor activities of MM-specific CTL were measured by CD107a degranulation and IFN-γ production against MM. In brief, XBP1/CD138/CS1-specific CTL were treated with clinical grade anti-PD1 or anti-LAG3 (1 μg/ml) for 24 hours. The cells were then cultured with U266 MM cells in the presence of CD107a mAb. After 1-hour incubation, Brefeldin A (BD) and Monensin (BD) were added, and cultures were incubated for an additional 5 hours. Cells were harvested, washed in PBS, stained with LIVE/DEAD reagent, washed, incubated with fluorochrome conjugated mAb to identify T cells, allowing for assays of their functional activity against MM. After surface staining, cells were fixed/permeabilized, stained for Th1 cytokines, washed with Perm/Wash solution (BD), and analyzed by flow cytometry. MP-CTL specific CD107a degranulation and Th1 cytokine production were analyzed using DIVA™ v8.0 or FlowJo v10.0.7 software.

[6] = system: XBP1/CD138/CS1-specific CD8+ CTL stimulated with U266 MM cells; assay: CFSE proliferation of XBP1/CD138/CS1-specific CTL in response to HLA-A2+ U266 MM cells; assay type: cell-based, human; conditions: CTL (N=5) treated with antibody, α-LAG3>α-PD-1, FIG. 6B
Protocol: as §4, §3

[7] = system: T cells in BMMC from MM patients; assay: CFSE T cell proliferation in MM patient BMMC stimulated with irradiated tumor cells or tumor lysates; assay type: cell-based, human; conditions: BMMC (N=5), FIG. 9; for enhancement of tumor-lysate-induced T cell response: checkpoint inhibitors (anti-LAG3>anti-PD1) more than immune agonists
Protocol: as §1, §3

[8] = system: CD4+ Treg in BMMC from MM patients; assay: Treg proliferation in MM patient BMMC after modulator treatment; assay type: cell-based, human; conditions: for Treg proliferation: BMMC of MM patients (N=5), single agents compared, FIG. 5B
Protocol: as §2, §3

[9] = BMMC of MM patients (N=10), FIG. 5A
[10] = BMMC of MM patients (N=10), antibody 1 μg/ml, low dose IL-2, FIG. 1B
[11] = antibody 1 μg/ml, low dose IL-2, FIG. 1B

Sequence of UniProt P17931 (P17931 2-250 limits assumed): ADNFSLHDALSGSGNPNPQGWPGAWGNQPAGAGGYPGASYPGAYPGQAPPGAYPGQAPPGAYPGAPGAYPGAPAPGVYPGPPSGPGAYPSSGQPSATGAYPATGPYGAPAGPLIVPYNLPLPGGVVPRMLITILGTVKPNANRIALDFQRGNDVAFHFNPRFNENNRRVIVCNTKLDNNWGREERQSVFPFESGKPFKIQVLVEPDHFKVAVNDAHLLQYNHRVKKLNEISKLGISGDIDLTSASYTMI

proliferation of CD4+Th cells in newly diagnosed MM patient BMMC, Patient #1 [1]: 13% | proliferation of CD4+Th cells in newly diagnosed MM patient BMMC, Patient #2 [1]: 9% | proliferation of CD8+Tc cells in newly diagnosed MM patient BMMC, Patient #1 [1]: 45% | proliferation of CD8+Tc cells in newly diagnosed MM patient BMMC, Patient #2 [1]: 38%
Substance: Anti-GAL3 antibody (BD, Clone B2C10; Cat Nos.: 565676-565678, and 565682)

Substance: anti-LAG3: Clinical grade checkpoint inhibitor, anti-LAG3 antibody Relatlimab, provided by Bristol-Myers Squibb
T cell proliferation [2]: significantly (*p<0.05) higher | upregulation of PD1 and LAG3 expression on T cells [3, 9]: induce upregulation | upregulation / induction of other immune checkpoints [3]: lowest level | proliferation of CD4+ Th cells [4, 10]: significant increase; also recorded: highest proliferation | proliferation of CD8+ Tc cells [4, 10]: increased; also recorded: highest proliferation | CD3+ T cell proliferation [4, 11]: triggered | effector T cell proliferation ([4]; among clinical grade checkpoint inhibitors and immune agonists evaluated (discussion)): most robust | T cell responses in BMMC/PBMC from MM patients compared with healthy donors ([4]; discussion): significantly increased | CD107a degranulation [5]: highest anti-tumor activities | IFN-γ production [5]: highest anti-tumor activities | proliferation of total CD8+ T cells and Central Memory, Effector Memory, CD28+ and CD38+ CTL subsets [6]: significantly increase; also recorded: enhanced proliferation | enhancement of tumor-lysate-induced T cell response [7]: enhanced to a greater extent | T cell proliferation ([7]; mixture of ten MM cell lines as irradiated whole cells or tumor lysates, vs other immune modulators): significantly higher | impact of treatment on G-type MDSC and Tregs ([8]; BM milieu of MM patients (discussion)): low | Treg proliferation [8]: lowest induction; also recorded: lowest level

Substance: anti-PD1: Clinical grade checkpoint inhibitor, anti-PD1 antibody Nivolumab, provided by Bristol-Myers Squibb
proliferation of T cells expressing an alternative immune checkpoint [3, 9]: to a greater extent than anti-LAG3 treatment | upregulation of PD1 and LAG3 expression on T cells [3, 9]: induce upregulation | upregulation / induction of other immune checkpoints [3]: highest level | upregulation / induction of other immune checkpoints ([3]; listed as anti-PD-1 antibody): upregulate | proliferation of CD4+ Th cells [4, 10]: significant increase | CD3+ T cell proliferation [4, 11]: triggered | proliferation of total CD8+ T cells and Central Memory, Effector Memory, CD28+ and CD38+ CTL subsets [6]: significantly increase | enhancement of tumor-lysate-induced T cell response [7]: enhanced to a greater extent | Treg proliferation [8]: high induction; also recorded: highest level | expansion of Treg cells, single agent ([8]; BMMC, relapsed/refractory MM (N=3), FIG. 5C): significant (*p<0.05) expansion
